Common to all, as to assay type: cell-based
Assay [1] deals with T1, GPR139 N271A^7×38 (Homo sapiens, UniProt Q6DWJ6, N271A).
T1 construct: myc (N); expressed in transfected cells
T1 sequence (Q6DWJ6 1-353 N271A): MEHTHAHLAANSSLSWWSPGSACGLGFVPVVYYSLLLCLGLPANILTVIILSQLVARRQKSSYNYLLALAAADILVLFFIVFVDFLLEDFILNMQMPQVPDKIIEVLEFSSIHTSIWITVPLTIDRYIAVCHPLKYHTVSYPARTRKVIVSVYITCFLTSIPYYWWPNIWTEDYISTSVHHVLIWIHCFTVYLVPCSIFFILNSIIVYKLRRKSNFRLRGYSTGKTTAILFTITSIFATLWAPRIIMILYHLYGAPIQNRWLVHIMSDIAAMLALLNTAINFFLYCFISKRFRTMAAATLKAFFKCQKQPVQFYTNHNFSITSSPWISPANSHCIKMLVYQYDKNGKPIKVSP
Nature of the assay: Ca2+ mobilization on GPR139 mutant N271A. On the procedure: (§1) Figure 4 Ca^2+ mobilization concentration-response curves of AC4 on GPR139 wild-type (WT) and mutants. Data is shown from a representative experiment (mean ± S.D.) out of three independent experiments performed in duplicate. Data is normalized to the Ca^2+ response of buffer (0%) and 100 μM AC4 (100%) on myc-GPR139(WT). Residue numbering in superscript is according to GPCRdb numbering system.
(§2) The mutational studies were performed as previously described.

In assay [2] the target is T2, GPR139 (Homo sapiens, UniProt Q6DWJ6).
T2 construct: host or cells: CHO-k1
T2 sequence (Q6DWJ6 1-353): T1 sequence (Q6DWJ6 1-353 N271A) with A271N
Nature of the assay: Fluo-4 calcium mobilization assay, agonist mode, concentration-response curves in CHO-GPR139 cells. On the procedure:
All compounds were tested on a CHO-k1 cell line stably expressing GPR139 (CHO-GPR139)[11] kindly provided by H. Lundbeck A/S, Denmark. GPR139-specific responses were assessed using a CHO-k1 cell line stably expressing the muscarinic acetylcholine receptor M1 (CHO-M1) (The Missouri S&T cDNA Resource Center, # CEM100TN00). The CHO-GPR139 cells were grown in Dulbecco’s modified Eagle’s medium (DMEM) F12-Kaighn’s (ThermoFisher Scientific # 21127) supplemented with 10% dialyzed fetal bovine serum (United States origin; ThermoFisher Scientific # 26400), 1% GlutaMAX-I (100X) (ThermoFisher Scientific # 35050061), and 100 units/mL penicillin and 100 µg/mL streptomycin (ThermoFisher Scientific # 15140122) and 1 mg/mL geneticin (ThermoFisher Scientific # 11811031). The CHO-M1 cells were grown in Ham’s F12 (ThermoFisher Scientific # 21765) supplemented with 10% fetal bovine serum (South American origin; ThermoFisher Scientific # 10270) + 100 units/mL penicillin and streptomycin and 0.25 mg/mL geneticin.
The Fluo-4 Ca^2+-assay was performed as described previously, with minor modifications. After 1 hour incubation with the Fluo-4 dye, the CHO-GPR139 cells were washed with 100 μL HEPES buffer (Hank’s Balanced Salt Solution (HBBS, ThermoFisher Scientific # 14175053) supplemented with 20 mM HEPES, 1 mM MgCl2, 1 mM CaCl2, pH = 7.4) and the compound library was then added in concentrations between 25–63 μM dissolved in HEPES buffer (supplemented with 2.5 mM probenecid and 1% DMSO) and pre-incubated for 10 min at 37 °C. 33 μL of 3.2 μM 1a were added automatically after baseline measurements. […] This set-up allowed us to identify both antagonists and agonists (Fig. 2).
Each compound, for which a concentration response curve was made, was tested at least three times in duplicate measurements. After the incubation with the Fluo-4 dye and a wash, 100 μL HEPES buffer (supplemented with 2.5 mM probenecid) was added to each well and incubated for 10 minutes at 37 °C before recording. 33 μL of compounds (4× concentrated) were added automatically after baseline measurements.
The Ca^2+ and ERK responses were normalized as indicated and the concentration response curves were fitted by Prism 6 software (GraphPad) using nonlinear regression in a sigmoidal model with variable slope, as has been previously described.
For orientation: Calcium assays in cells follow changes in intracellular calcium, usually with a dye or a luminescent sensor.

In assay [3] the target is T3, GPR139 F109L^3×33 (Homo sapiens, UniProt Q6DWJ6, F109L).
T3 construct: myc (N); expressed in transfected cells
T3 sequence (Q6DWJ6 1-353 F109L): T1 sequence (Q6DWJ6 1-353 N271A) with F109L, A271N
Nature of the assay: Ca2+ mobilization on GPR139 mutant F109L. The conditions noted are these: highest tested concentration (100 μM), n = 3. On the procedure: as §1, §2

Positions count from the first letter of the chain named.

In general, Emax refers to the maximal effect, on the per cent scale that the assay sets.

In the case of `O=C(O)C1CC=CCC1c1nnc(CSc2ccc(Cl)cc2)o1` (centres unmarked) [AC4], the “Ca2+ response” value in assay [1] is on record as “no measurable Ca^2+ response”; in assay [3], 17 ± 2 % of WT. Also, the Emax was determined as 116 ± 3% in assay [2] (CHO-GPR139 cells, normalized to buffer (0%) and 8 μM 1a (100%)); 115 ± 3% in assay [2] (Table S1, normalized to compound 1a). In addition, the EC50 in assay [2] (CHO-GPR139 cells, read-out: pEC50 ± S.E.M. (converted)) was 219 nM.

These data come from article PMC6405842, “Identification of a novel scaffold for a small molecule GPR139 receptor agonist” (Scientific Reports, 2019).
